Read-outs that look alike come from different tables or passages of the source.
Key:
[1] = Vasodilator activity (vasodilation of the ocular conjunctiva in guinea pigs); type: in vivo, guinea pig
[2] = Edema resulting from yeast in the paw of the rat; type: in vivo; conditions: oral, ASA 200, AST 300 mg/Kg
Method: (A) Edema resulting from yeast in the paw of the rat. The AST product was administered orally both in the acid and sodium salt form. It was compared with a molar equivalent dose of acetylsalicylic acid and with carboxymethylcellulose placebo. The edema of the paw was induced with a local injection of the yeast simultaneously with the oral treatment with the drugs, and the volume of the paw was measured in hundredths of milliliter.

[3] = Analgesic activity: mechanical pressure test on inflamed rat's paw; type: in vivo; conditions: oral, ASA 200, AST 300 mg/Kg
Method: (B) Mechanical pressure test on inflamed rat's paw. The AST product was administered both in the acid and sodium salt form by the oral method. It was compared with a molar equivalent dosage of acetylsalicylic acid and with a carboxymethylcellulose placebo. The inflammation of the paw was induced by a local injection of yeast simultaneously with the oral treatment with the drugs and the tenderness was measured in grams of mechanical pressure required to cause a reaction in the animal.

[4] = type: in vivo, rat; conditions: fasted rats, oral, 225 mg/Kg acetylsalicylic acid
Method: Rats which had not been fed for 24 hours were used. The AST product was administered orally as the acid or the sodium salt at a dosage of 335 mg/Kg suspended in 1% carboxymethylcellulose. […] Both the methods of treatment and the observation time were identical for the 3 groups of animals.

[5] = Antipyretic activity: pyrexia from subcutaneous yeast in the rat; type: in vivo; conditions: p.o., ASA 200, AST 300 mg/Kg
Method: Pyrexia from subcutaneous yeast in the rat. The AST product was administered orally in the acid from and the salt form with sodium, and by the intraperitoneal method in the salt form. It was compared with a molar equivalent dose of acetylsalicylic acid administered orally and with a carboxymethylcellulose placebo. The pyrexia was induced with a subcutaneous injection of yeast on the evening prior to the drug treatment, i.e. 16 hours before.

[6] = mouse, literature, cited from earlier work
[7] = Analgesic activity: convulsions produced by phenylquinone; type: in vivo, mouse; conditions: oral, ASA 200, AST 300 mg/Kg
Method: (A) Test of convulsions produced by phenylquinone injected into mice by the intraperitoneal route. The AST product was administered orally both in the acid form (AST Ac). and as the sodium salt (AST Na). It was compared with a molar equivalent dosage of acetylsalicylic acid and with a carboxymethylcellulose placebo. The convulsions were induced at varying intervals from the oral treatment counting from the first 20 minutes after the injection of phenylquinone.

[8] = Edema as a result of nystatin in the rat's paw; type: in vivo; conditions: p.o.
Method: (B) Edema as a result of nystatin in the rat's paw. The long duration of this type of edema enabled the animals to be repeatedly treated in order to ascertain the presence if any of the protracted effect of the AST product also using parenteral administration. The comparison was carried out using a molar equivalent dose of acetylsalicylic acid administrated orally and with the carboxymethylcellulose placebo also only administered orally. The AST product was used in the acid form orally and in the salt form using intraperitoneal administration.
The dosages of the drugs, always proportional to one another, were varied from day to day, i.e.: the first day a dosage of 200 mg/Kg of ASA and 300 mg/Kg of AST; the second day a double dose of each; the third day a double dose of each divided into two equal components administered with a spacing of 9 hours (10 am and 7 pm respectively); the fourth day no treatment in order to check the length of the effect after the fourth administration.
The […] was injected into the paw on the night before the first treatment with the drugs and the volume of the paw was measured in hundredths of milliliter.

[9] = Antilipemic action, Morris, Handler or Nath diet, Compound B; type: in vivo, Wistar rat; conditions: 45 days, 200 mg/kg orally
Method: Wistar rats were treated for 45 days with a Morris diet, a Handler diet or a Nath diet. Simultaneously with the diet they received each day 200 mg/kg of Compound B or choline (except for the Nath diet) orally.

[10] = Antilipemic action, Morris or Handler diet, Compound A; type: in vivo, Wistar rat; conditions: 50 days, 200 mg/kg orally
Method: Wistar rats were treated for 50 days with a Morris diet or a Handler diet. Simultaneously with the diet they received 200 mg/kg of Compound A or of choline orally every day. The controls only received the diet. The following were examined at the end of the treatment: (a) total cholesterol, total lipids and beta-lipoproteins in the serum, (b) BSF excretion in the bile.

[11] = Choleretic activity in cannulated rats; type: in vivo, rat; conditions: for Bile dry residue change / Bile volume change / Bile dry residue after 2 h / Bile volume after 2 h: 100 mg/kg i.v.; for Bile dry residue after 2 h / Bile volume after 2 h: given after first hour; for Bile dry residue after 1 h / Bile volume after 1 h: before treatment (first hour)
Method: Rats were fitted with a cannula, the bile volume was measured after the first hour, they were then treated with a test compound and the bile volume was measure after the second hour, so as to determine the percentage change. The various compounds were administered intravenously at a dose of 100 mg/kg.

[12] = Protection against hepatic intoxication by CCl4 and cold, Compound B (BSF in blood); type: in vivo; conditions: 500 mg/kg endoperitoneal
Method: Oral administration of 5 ml/kg of a 20% solution of CCl4 in oil, with simultaneous endoperitoneal administration of 500 mg/kg of Compound B, was followed by exposure for 5 hours at 4° C. BSF in the blood (30 mg/kg i.v.) was tested. A comparison product, homocysteinethiolactone (OCT) was employed.
10 Animals were treated per group, and the results expressed as percentage change with respect to the controls were as shown in Table 4.

## O=C(O)C(O)C(O)C(=O)O.OCc1cccnc1 (centres unmarked) [3-Pyridylcarbinol tartrate, 3-pyridylcarbinol tartrate]
[1]; 0.1 mg/kg endoperitoneal
  Vasodilator effect: duration: 0 min
  Vasodilator effect: positive response: 0%
  Vasodilator effect: time of appearance: 0 s
[1]; 1.0 mg/kg endoperitoneal
  Vasodilator effect: positive response: 40%
[1]; 10.0 mg/kg endoperitoneal
  Vasodilator effect: duration: 120 min
  Vasodilator effect: positive response: 100%
  Vasodilator effect: time of appearance: 57 s

## CC(=O)Oc1ccccc1C(=O)O [ASA, acetylsalicylic acid, reference compound]
[2]; 1h
  Inhibition of the edema with respect to treatment with placebo: 41
[2]; 3h
  Inhibition of the edema with respect to treatment with placebo: 51
[2]; 5h
  Inhibition of the edema with respect to treatment with placebo: 55
[3]; 1h
  % Inhibition of the hyperalgesia in respect of treatment with placebo: 27%
[3]; 5h
  % Inhibition of the hyperalgesia in respect of treatment with placebo: 0%
[4]
  Haemorrhagic gastric ulcers: 5 to 10
[5]; 1h
  % Inhibition of the pyrexia in respect of treatment with placebo: 78%
[5]; 2h
  % Inhibition of the pyrexia in respect of treatment with placebo: 103%
[5]; 4h
  % Inhibition of the pyrexia in respect of treatment with placebo: 114%
[5]; 6h
  % Inhibition of the pyrexia in respect of treatment with placebo: 58%
[5]; 8h
  % Inhibition of the pyrexia in respect of treatment with placebo: 45%
[6]; intraperitoneal
  LD50: 420 mg/kg
[6]; oral
  LD50: 1,050 mg/kg
[7]; 1h
  Inhibition % of convulsions in respect of treatment with placebo: 23%
[7]; 2h
  Inhibition % of convulsions in respect of treatment with placebo: 37%
[7]; 4h
  Inhibition % of convulsions in respect of treatment with placebo: 17%
[8]; 1st day, 2h after 1st dose, ASA 200, AST Ac 300 mg/Kg
  % Inhibition of the edema in respect of treatment with placebo: 8%
[8]; 1st day, 4h after 1st dose, ASA 200, AST Ac 300 mg/Kg
  % Inhibition of the edema in respect of treatment with placebo: 10%
[8]; 1st day, 8h after 1st dose, ASA 200, AST Ac 300 mg/Kg
  % Inhibition of the edema in respect of treatment with placebo: 7%
[8]; 2nd day, 2h after 2nd dose, ASA 400, AST Ac 600 mg/Kg
  % Inhibition of the edema in respect of treatment with placebo: 10%
[8]; 2nd day, 4h after 2nd dose, ASA 400, AST Ac 600 mg/Kg
  % Inhibition of the edema in respect of treatment with placebo: 11%
[8]; 2nd day, 8h after 2nd dose, ASA 400, AST Ac 600 mg/Kg
  % Inhibition of the edema in respect of treatment with placebo: 15%
[8]; 3rd day, 2h after 3rd dose, ASA 200, AST Ac 300 mg/Kg
  % Inhibition of the edema in respect of treatment with placebo: 8%
[8]; 3rd day, 4h after 3rd dose, ASA 200, AST Ac 300 mg/Kg
  % Inhibition of the edema in respect of treatment with placebo: 11%
[8]; 3rd day, 8h after 3rd dose, ASA 200, AST Ac 300 mg/Kg
  % Inhibition of the edema in respect of treatment with placebo: 14%
[8]; 4th day, 13h after 4th dose, ASA 200, AST Ac 300 mg/Kg
  % Inhibition of the edema in respect of treatment with placebo: 9%
[8]; 4th day, 17h after 4th dose, ASA 200, AST Ac 300 mg/Kg
  % Inhibition of the edema in respect of treatment with placebo: 12%
[8]; 4th day, 23h after 4th dose, ASA 200, AST Ac 300 mg/Kg
  % Inhibition of the edema in respect of treatment with placebo: 8%

## C[N+](C)(C)CCO [Choline, choline, reference compound]
[9]; Handler diet, B and Choline
  Bile BSF, percentage change vs control: -39.5%
  Liver total lipids, percentage change vs control: -29.2%
  Serum total cholesterol, percentage change vs control: -21.1%
  Serum total lipids, percentage change vs control: +44.2%
[9]; Morris diet
  Bile BSF, percentage change vs control: -2.8%
  Liver total lipids, percentage change vs control: +14.0%
  Serum beta-lipoproteins, percentage change vs control: +89.8%
  Serum total cholesterol, percentage change vs control: -22.9%
  Serum total lipids, percentage change vs control: +2.3%
[10]; Handler diet
  Bile BSF excretion, percentage change vs controls: -39.5%
  Serum total cholesterol, percentage change vs controls: -21.1%
  Serum total lipids, percentage change vs controls: +44.2%
[10]; Morris diet
  Bile BSF excretion, percentage change vs controls: -2.8%
  Serum beta-lipoproteins, percentage change vs controls: +89.8%
  Serum total cholesterol, percentage change vs controls: -22.9%
  Serum total lipids, percentage change vs controls: +2.3%

## O=C(OC1C(OC(=O)c2cccnc2)C(OC(=O)c2cccnc2)C(OC(=O)c2cccnc2)C(OC(=O)c2cccnc2)C1OC(=O)c1cccnc1)c1cccnc1 (centres unmarked) [Mesoinosital hexanicotinate, mesoinosital hexanicotinate]
[1]; 1.0 mg/kg endoperitoneal
  Vasodilator effect: duration: 0 min
  Vasodilator effect: positive response: 0%
[1]; 10.0 mg/kg endoperitoneal
  Vasodilator effect: duration: 87 min
  Vasodilator effect: positive response: 100%
  Vasodilator effect: time of appearance: 81 s

## O=S(=O)(O)CCNCCO [N-hydroxyethyltaurine]
[11]
  Bile dry residue change: -10.9%
  Bile volume change: -12.2%
  Bile dry residue after 2 h: 26.0 mg/h
  Bile volume after 2 h: 0.72 mL/h
  Bile dry residue after 1 h: 29.1 mg/h
  Bile volume after 1 h: 0.82 mL/h

## O=C(O)c1cccnc1 [Nicotinic acid, nicotinic acid]
[1]; 10.0 mg/kg endoperitoneal
  Vasodilator effect: duration: 0 min
  Vasodilator effect: positive response: 0%
  Vasodilator effect: time of appearance: 0 s
[1]; 25.0 mg/kg endoperitoneal
  Vasodilator effect: positive response: 20%
[1]; 50.0 mg/kg endoperitoneal
  Vasodilator effect: duration: 87 min
  Vasodilator effect: positive response: 80%
  Vasodilator effect: time of appearance: 180 s

## NC1CCSC1=O (centres unmarked) [OCT, homocysteinethiolactone, reference compound]
[12]; test number 1
  Hepatic intoxication protection, percentage change of BSF in blood vs controls: -22.7%
[12]; test number 2
  Hepatic intoxication protection, percentage change of BSF in blood vs controls: -18.5%

## CCC(C(=O)O)C1(O)CCC(c2ccccc2)CC1 (stereo not drawn) [α-(1-hydroxy-4-phenylcyclohexyl)butyric acid]
[11]
  Bile dry residue change: +39.1%
  Bile volume change: +90.0%
  Bile dry residue after 2 h: 32.7 mg/h
  Bile volume after 2 h: 1.14 mL/h
  Bile dry residue after 1 h: 23.5 mg/h
  Bile volume after 1 h: 0.60 mL/h
